Numbering of substitutions follows the chain as printed.
What was measured:
[1] = target: Receptor-type tyrosine-protein kinase FLT3 (Homo sapiens) (UniProt P36888); assay: (§1) Selectivity interaction (KinomeScan (DiscoverX)) EUB0000045b FLT3
[2] = system: Receptor-type tyrosine-protein kinase FLT3 (Homo sapiens), P36888 [UNDEFINED MUTATION]; assay: as §1
[3] = system: T1, Receptor-type tyrosine-protein kinase FLT3 (Homo sapiens), P36888 [N841I]; assay: as §1
T1 sequence (whole entry): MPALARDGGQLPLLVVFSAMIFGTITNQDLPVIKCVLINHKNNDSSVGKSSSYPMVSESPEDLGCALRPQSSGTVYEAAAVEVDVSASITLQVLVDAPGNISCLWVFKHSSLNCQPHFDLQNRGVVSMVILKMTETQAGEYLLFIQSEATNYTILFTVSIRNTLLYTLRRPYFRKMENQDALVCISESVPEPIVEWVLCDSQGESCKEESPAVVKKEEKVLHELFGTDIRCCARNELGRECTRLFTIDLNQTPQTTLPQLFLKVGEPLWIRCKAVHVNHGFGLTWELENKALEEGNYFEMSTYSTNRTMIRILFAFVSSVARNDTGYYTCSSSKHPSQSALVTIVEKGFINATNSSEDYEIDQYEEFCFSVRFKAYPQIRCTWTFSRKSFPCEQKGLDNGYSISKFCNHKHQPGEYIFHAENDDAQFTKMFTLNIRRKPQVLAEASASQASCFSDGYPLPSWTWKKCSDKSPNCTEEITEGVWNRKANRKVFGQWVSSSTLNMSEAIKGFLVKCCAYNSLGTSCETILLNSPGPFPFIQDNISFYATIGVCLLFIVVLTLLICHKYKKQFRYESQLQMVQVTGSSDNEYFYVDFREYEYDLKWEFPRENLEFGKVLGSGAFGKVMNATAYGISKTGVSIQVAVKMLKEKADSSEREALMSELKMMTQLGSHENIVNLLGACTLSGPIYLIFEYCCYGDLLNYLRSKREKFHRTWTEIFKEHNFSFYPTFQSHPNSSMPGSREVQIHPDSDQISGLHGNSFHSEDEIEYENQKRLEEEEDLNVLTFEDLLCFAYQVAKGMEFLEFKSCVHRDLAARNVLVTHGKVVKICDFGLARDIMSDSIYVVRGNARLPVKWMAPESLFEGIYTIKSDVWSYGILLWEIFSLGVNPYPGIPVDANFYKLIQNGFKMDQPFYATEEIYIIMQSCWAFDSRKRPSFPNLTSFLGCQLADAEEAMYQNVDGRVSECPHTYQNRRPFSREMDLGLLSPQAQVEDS

[4] = system: T2, Receptor-type tyrosine-protein kinase FLT3 (Homo sapiens), P36888 [R834Q]; assay: as §1
T2 sequence (whole entry): T1 sequence (whole entry) with R834Q, I841N

Q: Which results are given for `C=CC(=O)Nc1cc(-n2c(=O)ccc3cnc4ccc(-c5ccc(NS(C)(=O)=O)cc5)cc4c32)ccc1C`?
A: % of control ([1]; at 1 µM): 80%; % of control ([1]; at 10 µM): 81%; % of control ([2]; at 1 µM): 99%; % of control ([2]; at 10 µM): 100%; % of control ([3]; at 1 µM): 85%; % of control ([3]; at 10 µM): 86%; % of control ([4]; at 1 µM): 100%; % of control ([4]; at 10 µM): 100%

Reference: ChEMBL document CHEMBL5465560, “Selectivity Literature for EUbOPEN Chemogenomic Library” (2024)
